Earlier results as cited in US11141456B2, “Therapeutic compositions including frataxin, lactoferrin, and mitochondrial energy generating enzymes, and uses thereof” (Stealth BioTherapeutics Corp, priority 2014, dated 2021).

System: several mammalian cell types
Conditions: energy-independent manner; cited from earlier work

Substance: 2′,6′-Dmt-D-Arg-Phe-Lys-NH2
- penetration of the plasma membrane: readily penetrates the plasma membrane
